Assay results reported in patent publication US6638973B2, “Taxane formulations” (FSU Research Foundation, Inc., priority 2000, dated 2003).

System: HCT116 cells
Assay: In vitro cytotoxicity measured by the cell colony formation assay
Assay type: cell-based
Settings: HCT116 cells, 72 h incubation with drug, colonies counted after 7 days; ID50 = drug concentration producing 50% inhibition of colony formation; read-out: IN VITRO ID 50 (nm) HCT116
Outline: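 Colony-forming survival was scored 7 days after a 72 h, 37 °C compound exposure followed by washout into fresh medium.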

SMILES	IC50
CCCC(=O)N[C@@H](c1cccs1)[C@@H](O)C(=O)O[C@H]1C[C@@]2(O)[C@@H](OC(=O)c3ccccc3)C3[C@](C)(C(=O)[C@H](OC(=O)OCC)C(=C1C)C2(C)C)[C@@H](O)C[C@H]1OC[C@@]31OC(C)=O (stereo partly shown) [Compound 3155]	< 1 nM
CCOC(=O)O[C@H]1C(=O)[C@@]2(C)C([C@H](OC(=O)c3ccccc3)[C@]3(O)C[C@H](OC(=O)[C@H](O)[C@@H](NC(=O)OCC(C)C)c4ccco4)C(C)=C1C3(C)C)[C@]1(OC(C)=O)CO[C@@H]1C[C@@H]2O (stereo partly shown) [Compound 3181]	< 1 nM
C/C=C/C(=O)N[C@@H](c1cccs1)[C@@H](O)C(=O)O[C@H]1C[C@@]2(O)[C@@H](OC(=O)c3ccccc3)C3[C@](C)(C(=O)[C@H](OC(=O)OCC)C(=C1C)C2(C)C)[C@@H](O)C[C@H]1OC[C@@]31OC(C)=O (stereo partly shown) [Compound 3243]	< 1 nM
CCOC(=O)O[C@H]1C(=O)[C@@]2(C)C([C@H](OC(=O)c3ccccc3)[C@]3(O)C[C@H](OC(=O)[C@H](O)[C@@H](NC(=O)c4cccnc4)c4cccs4)C(C)=C1C3(C)C)[C@]1(OC(C)=O)CO[C@@H]1C[C@@H]2O (stereo partly shown) [Compound 3300]	< 10 nM
CCOC(=O)O[C@H]1C(=O)[C@@]2(C)C([C@H](OC(=O)c3ccccc3)[C@]3(O)C[C@H](OC(=O)[C@H](O)[C@@H](NC(=O)c4ccncc4)c4cccs4)C(C)=C1C3(C)C)[C@]1(OC(C)=O)CO[C@@H]1C[C@@H]2O (stereo partly shown) [Compound 3393]	> 50 nM
CCOC(=O)O[C@H]1C(=O)[C@@]2(C)C([C@H](OC(=O)c3ccccc3)[C@]3(O)C[C@H](OC(=O)[C@H](O)[C@@H](NC(=O)c4ccccn4)c4cccs4)C(C)=C1C3(C)C)[C@]1(OC(C)=O)CO[C@@H]1C[C@@H]2O (stereo partly shown) [Compound 3433]	22.3 nM

Same assay, conditions: HCT116 colony formation; 72 h drug incubation, colonies counted after 7 days; Example 5, C-7 ester/C-10 hydroxy taxanes; read-out: IN VITRO ID 50 (nm) HCT116

SMILES	IC50
CCCC(=O)N[C@@H](c1ccco1)[C@@H](O)C(=O)O[C@H]1C[C@@]2(O)[C@@H](OC(=O)c3ccccc3)C3[C@](C)(C(=O)[C@H](O)C(=C1C)C2(C)C)[C@@H](OC(=O)CC)C[C@H]1OC[C@@]31OC(C)=O (stereo partly shown) [Compound 3171]	< 1 nM
CCC(=O)O[C@H]1C[C@H]2OC[C@@]2(OC(C)=O)C2[C@H](OC(=O)c3ccccc3)[C@]3(O)C[C@H](OC(=O)[C@H](O)[C@@H](NC(=O)OCC(C)C)c4ccco4)C(C)=C([C@@H](O)C(=O)[C@@]21C)C3(C)C (stereo partly shown) [Compound 3196]	< 10 nM
CCC(=O)O[C@H]1C[C@H]2OC[C@@]2(OC(C)=O)C2[C@H](OC(=O)c3ccccc3)[C@]3(O)C[C@H](OC(=O)[C@H](O)[C@@H](NC(=O)OCC(C)C)c4cccs4)C(C)=C([C@@H](O)C(=O)[C@@]21C)C3(C)C (stereo partly shown) [Compound 3232]	< 1 nM
CCCC(=O)N[C@@H](c1cccs1)[C@@H](O)C(=O)O[C@H]1C[C@@]2(O)[C@@H](OC(=O)c3ccccc3)C3[C@](C)(C(=O)[C@H](O)C(=C1C)C2(C)C)[C@@H](OC(=O)CC)C[C@H]1OC[C@@]31OC(C)=O (stereo partly shown) [Compound 3327]	< 10 nM
CCC(=O)O[C@H]1C[C@H]2OC[C@@]2(OC(C)=O)C2[C@H](OC(=O)c3ccccc3)[C@]3(O)C[C@H](OC(=O)[C@H](O)[C@@H](NC(=O)c4ccccc4)c4ccsc4)C(C)=C([C@@H](O)C(=O)[C@@]21C)C3(C)C (stereo partly shown) [Compound 3388]	< 10 nM
CCC(=O)O[C@H]1C[C@H]2OC[C@@]2(OC(C)=O)C2[C@H](OC(=O)c3ccccc3)[C@]3(O)C[C@H](OC(=O)[C@H](O)[C@@H](NC(=O)OC(C)C)c4ccco4)C(C)=C([C@@H](O)C(=O)[C@@]21C)C3(C)C (stereo partly shown) [Compound 3444]	< 1 nM
CCC(=O)O[C@H]1C[C@H]2OC[C@@]2(OC(C)=O)C2[C@H](OC(=O)c3ccccc3)[C@]3(O)C[C@H](OC(=O)[C@H](O)[C@@H](NC(=O)c4cccs4)c4cccs4)C(C)=C([C@@H](O)C(=O)[C@@]21C)C3(C)C (stereo partly shown) [Compound 3479]	< 1 nM

Same assay, conditions: HCT116 colony formation; 72 h drug incubation, colonies counted after 7 days; Example 10, C-10 ester/C-7 hydroxy taxanes; read-out: IN VITRO ID 50 (nm) HCT116

SMILES	IC50
CCCC(=O)O[C@H]1C(=O)[C@@]2(C)C([C@H](OC(=O)c3ccccc3)[C@]3(O)C[C@H](OC(=O)[C@H](O)[C@@H](NC(=O)OCC(C)C)c4ccco4)C(C)=C1C3(C)C)[C@]1(OC(C)=O)CO[C@@H]1C[C@@H]2O (stereo partly shown) [Compound 3110]	< 1 nM
CC(=O)O[C@@]12CO[C@@H]1C[C@H](O)[C@@]1(C)C(=O)[C@H](OC(=O)C3CC3)C3=C(C)[C@@H](OC(=O)[C@H](O)[C@@H](NC(=O)OCC(C)C)c4cccs4)C[C@@](O)([C@@H](OC(=O)c4ccccc4)C12)C3(C)C (stereo partly shown) [Compound 3129]	< 10 nM
CCCC(=O)N[C@@H](c1cccs1)[C@@H](O)C(=O)O[C@H]1C[C@@]2(O)[C@@H](OC(=O)c3ccccc3)C3[C@](C)(C(=O)[C@H](OC(=O)C4CC4)C(=C1C)C2(C)C)[C@@H](O)C[C@H]1OC[C@@]31OC(C)=O (stereo partly shown) [Compound 3132]	< 1 nM
CCCC(=O)N[C@@H](c1cccs1)[C@@H](O)C(=O)O[C@H]1C[C@@]2(O)[C@@H](OC(=O)c3ccccc3)C3[C@](C)(C(=O)[C@H](OC(=O)CCC)C(=C1C)C2(C)C)[C@@H](O)C[C@H]1OC[C@@]31OC(C)=O (stereo partly shown) [Compound 3148]	< 1 nM
CCC(=O)O[C@H]1C(=O)[C@@]2(C)C([C@H](OC(=O)c3ccccc3)[C@]3(O)C[C@H](OC(=O)[C@H](O)[C@@H](NC(=O)OCC(C)C)c4cccs4)C(C)=C1C3(C)C)[C@]1(OC(C)=O)CO[C@@H]1C[C@@H]2O (stereo partly shown) [Compound 3163]	< 1 nM
CCCC(=O)O[C@H]1C(=O)[C@@]2(C)C([C@H](OC(=O)c3ccccc3)[C@]3(O)C[C@H](OC(=O)[C@H](O)[C@@H](NC(=O)c4ccccc4)c4ccco4)C(C)=C1C3(C)C)[C@]1(OC(C)=O)CO[C@@H]1C[C@@H]2O (stereo partly shown) [Compound 3204]	< 1 nM
CCCC(=O)N[C@@H](c1ccco1)[C@@H](O)C(=O)O[C@H]1C[C@@]2(O)[C@@H](OC(=O)c3ccccc3)C3[C@](C)(C(=O)[C@H](OC(=O)CC)C(=C1C)C2(C)C)[C@@H](O)C[C@H]1OC[C@@]31OC(C)=O (stereo partly shown) [Compound 3219]	< 1 nM
CCCC(=O)N[C@@H](c1ccco1)[C@@H](O)C(=O)O[C@H]1C[C@@]2(O)[C@@H](OC(=O)c3ccccc3)C3[C@](C)(C(=O)[C@H](OC(=O)CCC)C(=C1C)C2(C)C)[C@@H](O)C[C@H]1OC[C@@]31OC(C)=O (stereo partly shown) [Compound 3222]	< 1 nM
CCCC(=O)O[C@H]1C(=O)[C@@]2(C)C([C@H](OC(=O)c3ccccc3)[C@]3(O)C[C@H](OC(=O)[C@H](O)[C@@H](NC(=O)c4ccccc4)c4cccs4)C(C)=C1C3(C)C)[C@]1(OC(C)=O)CO[C@@H]1C[C@@H]2O (stereo partly shown) [Compound 3258]	< 1 nM
CCCC(=O)O[C@H]1C(=O)[C@@]2(C)C([C@H](OC(=O)c3ccccc3)[C@]3(O)C[C@H](OC(=O)[C@H](O)[C@@H](NC(=O)OCC(C)C)c4cccs4)C(C)=C1C3(C)C)[C@]1(OC(C)=O)CO[C@@H]1C[C@@H]2O (stereo partly shown) [Compound 3265]	< 10 nM
CC(=O)O[C@@]12CO[C@@H]1C[C@H](O)[C@@]1(C)C(=O)[C@H](OC(=O)C3CC3)C3=C(C)[C@@H](OC(=O)[C@H](O)[C@@H](NC(=O)c4ccco4)c4cccs4)C[C@@](O)([C@@H](OC(=O)c4ccccc4)C12)C3(C)C (stereo partly shown) [Compound 3297]	< 1 nM
CCCC(=O)N[C@@H](c1cccs1)[C@@H](O)C(=O)O[C@H]1C[C@@]2(O)[C@@H](OC(=O)c3ccccc3)C3[C@](C)(C(=O)[C@H](OC(=O)CCC)C(=C1C)C2(C)C)[C@@H](O)C[C@H]1OC[C@@]31OC(C)=O (stereo partly shown) [Compound 3314]	< 1 nM
CCCC(=O)O[C@H]1C(=O)[C@@]2(C)C([C@H](OC(=O)c3ccccc3)[C@]3(O)C[C@H](OC(=O)[C@H](O)[C@@H](NC(=O)c4ccco4)c4cccs4)C(C)=C1C3(C)C)[C@]1(OC(C)=O)CO[C@@H]1C[C@@H]2O (stereo partly shown) [Compound 3352]	< 1 nM
CCC(=O)O[C@H]1C(=O)[C@@]2(C)C([C@H](OC(=O)c3ccccc3)[C@]3(O)C[C@H](OC(=O)[C@H](O)[C@@H](NC(=O)OC(C)C)c4cccs4)C(C)=C1C3(C)C)[C@]1(OC(C)=O)CO[C@@H]1C[C@@H]2O (stereo partly shown) [Compound 3361]	< 1 nM
CCOC(=O)N[C@@H](c1cccs1)[C@@H](O)C(=O)O[C@H]1C[C@@]2(O)[C@@H](OC(=O)c3ccccc3)C3[C@](C)(C(=O)[C@H](OC(=O)CC)C(=C1C)C2(C)C)[C@@H](O)C[C@H]1OC[C@@]31OC(C)=O (stereo partly shown) [Compound 3370]	< 1 nM
CCCC(=O)O[C@H]1C(=O)[C@@]2(C)C([C@H](OC(=O)c3ccccc3)[C@]3(O)C[C@H](OC(=O)[C@H](O)[C@@H](NC(=O)c4cccs4)c4cccs4)C(C)=C1C3(C)C)[C@]1(OC(C)=O)CO[C@@H]1C[C@@H]2O (stereo partly shown) [Compound 3408]	< 1 nM
CCCC(=O)O[C@H]1C(=O)[C@@]2(C)C([C@H](OC(=O)c3ccccc3)[C@]3(O)C[C@H](OC(=O)[C@H](O)[C@@H](NC(=O)OC(C)C)c4ccco4)C(C)=C1C3(C)C)[C@]1(OC(C)=O)CO[C@@H]1C[C@@H]2O (stereo partly shown) [Compound 3417]	< 1 nM
CCC(=O)O[C@H]1C(=O)[C@@]2(C)C([C@H](OC(=O)c3ccccc3)[C@]3(O)C[C@H](OC(=O)[C@H](O)[C@@H](NC(=O)c4cccs4)c4cccs4)C(C)=C1C3(C)C)[C@]1(OC(C)=O)CO[C@@H]1C[C@@H]2O (stereo partly shown) [Compound 3425]	< 1 nM
CC(=O)O[C@@]12CO[C@@H]1C[C@H](O)[C@@]1(C)C(=O)[C@H](OC(=O)C3CC3)C3=C(C)[C@@H](OC(=O)[C@H](O)[C@@H](NC(=O)c4cccs4)c4cccs4)C[C@@](O)([C@@H](OC(=O)c4ccccc4)C12)C3(C)C (stereo partly shown) [Compound 3453]	< 1 nM
CCCC(=O)O[C@H]1C(=O)[C@@]2(C)C([C@H](OC(=O)c3ccccc3)[C@]3(O)C[C@H](OC(=O)[C@H](O)[C@@H](NC(=O)c4ccccc4)C4CC4)C(C)=C1C3(C)C)[C@]1(OC(C)=O)CO[C@@H]1C[C@@H]2O (stereo partly shown) [Compound 3482]	< 1 nM
C/C=C/C(=O)N[C@@H](c1cccs1)[C@@H](O)C(=O)O[C@H]1C[C@@]2(O)[C@@H](OC(=O)c3ccccc3)C3[C@](C)(C(=O)[C@H](OC(=O)CC)C(=C1C)C2(C)C)[C@@H](O)C[C@H]1OC[C@@]31OC(C)=O (stereo partly shown) [Compound 3494]	< 1 nM
